“Also recorded” adds a separate entry of the source. Bridge positions count the residues as written; N and C are the ends. Square brackets hold non-standard residues; d marks the D form. Ends that are not written are not given here. R8 = C=CCCCCCC[C@@](C)(N)C(=O)O; S5 = C=CCCC[C@](C)(N)C(=O)O
Tests used:
[1] = tested on: A431, H2030, H3255, H1975 and SK-N-MC cells; experiment: Cell viability across the cell line panel; format: cell-based; settings: for effect on cell viability: all cell lines tested, 18 h incubation
Excerpt: Error bars show standard error of the mean.

[2] = molecular target: EGFR (Homo sapiens, UniProt P00533); experiment: Immunoblot of EGFR phosphorylation in A431 cells; format: cell-based; settings: 10 μM, Akt and Erk1/2 positions
Protocol: A431 cells were treated with 10 μM of the ligand shown for 2 hours, stimulated with 10 ng/mL EGF, then lysed, immunoblotted, and visualized. Plots illustrate the increase or decrease in the intensity of the indicated phospho-protein band between treated and untreated cells. Error bars representing standard error of the mean over at least 4 trials.
Activation of EGFR upon growth factor binding leads to a well characterized pattern of Tyr and Ser/Thr phosphorylation events that initiate downstream signaling networks (Olayioye, et al., 2000, EMBO J., 19, 3159). Molecules that block growth factor binding to the extracellular domain, or ATP binding to the intracellular kinase domain, inhibit the phosphorylation of both EGFR and downstream factors such as Erk and Akt (Yarden, et al., 2012, Nat. Rev. Cancer, 12, 553). Immunoblots were used to evaluate whether the effects of JM-A-derived ligands on the viability of EGFR-dependent cell lines correlated with their effects on EGFR phosphorylation and the activation of downstream factors. Specifically, phosphorylation was probed at EGFR tyrosines 845, 1045, 1068, 1086, and 1173, as well as for phospho-Akt (Ser473) and phospho-Erk1/2 (T202/Y204) (FIG. 19).

[3] = tested on: EGFR CCH-1 juxtamembrane coiled coil; experiment: Bipartite tetracysteine display (ReAsH, TIRF) of intra-dimer coiled coil formation; format: cell-based; settings: CHO cells; for change of EGF-induced ReAsH fluorescence: EGFR CCH-1, 1 μM ligand 1 hour, 100 ng/mL EGF
Protocol: FIG. 21 is a graph depicting the results of example experiments conducted to monitor EGFR intra-dimer coiled coil formation using TIRF and bipartite tetracysteine display. CHO cells were transiently transfected with EGFR CCH-1, treated with 1 μM of the indicated ligand for 1 hour, stimulated with 100 ng/mL EGF for 30 minutes, and labeled with ReAsH (Scheck et al., 2012, ACS Chem Biol, 7: 1367). […] Error bars represent standard error of the mean. *p<0.05, **p<0.01, ***p<0.001, ****p<0.0001, one-way ANOVA with Bonferroni post-analysis accounting for multiple comparisons.
Experiments were conducted using CHO cells expressing an EGFR variant (CCH-1) with a cysteine pair within the JM-A whose location supports ReAsH binding and fluorescence upon EGF-induced coiled coil assembly 24. […] CHO cells transiently expressing the EGFR variant CCH-1 on the cell surface were exposed to native and hydrocarbon-stapled peptides, stimulated with EGF, incubated with ReAsH, and the fluorescence increase due to ReAsH quantified using total internal reflectance fluorescence microscopy (TIR-FM). […] Identical results were observed when cells were treated first with EGF and then with the indicated peptides. None of the peptides tested had any effect on the extent of ReAsH fluorescence in the absence of EGF. […] This work validates the juxtamembrane segment as a viable allosteric target for inhibitor design.

[4] = molecular target: T1, wtEGFR (Homo sapiens, UniProt P00533); experiment: Sequestration of EGFR from CHO-K1 lysates by biotinylated peptides on streptavidin beads; format: binding; settings: 25 μM biotinylated peptide, 1 hour
T1 construct: expressed in transfected cells; host or cells: CHO-K1 (transient transfection; lysate used)
Protocol: CHO-K1 lysates were treated with 25 μM of each biotinylated peptide shown for 1 hour, then incubated with streptavidin-coated beads overnight. Sequestered proteins were eluted, electrophoresed, and immunoblotted to detect EGFR. Band intensities were measured using ImageJ (Schneider et al., 2012, Nat. Meth., 9: 671).
Two additional experiments were performed to evaluate whether the E1^S-induced viability changes and decreases in EGFR and Erk/Akt phosphorylation resulted from a direct interaction with the EGFR JM segment. […] Each biotinylated analog (25 μM) was incubated for 1 hour with lysates from wtEGFR-expressing cells, and then incubated with Mag-Sepharose Streptavidin Beads overnight. A mock reaction lacking a biotinylated analog was run alongside. After washing, the sequestered proteins were eluted, resolved by SDS-PAGE (10%), probed with a commercial anti-EGFR antibody, visualized using a horseradish peroxidase-tagged mouse anti-rabbit secondary antibody, and quantified with chemiluminescent detection. […] Little or no EGFR was sequestered when no biotinylated peptide was added (mock), providing additional support for a direct interaction between the hydrocarbon-stapled peptide E1^S and the juxtamembrane segment of wild type EGFR.

Row | Substance | sequestration of full length wild type EGFR from cell lysates [4] | effect on cell viability [1] | pattern of phosphorylation changes over all probed positions [2] | change of EGF-induced ReAsH fluorescence [3] | also measured
1 | E1ΔL^S: hydrocarbon-stapled VRKRZARRAAQXRELVE (SEQ ID NO: 19; E1ΔL), leucines replaced by alanine (VRKR[R8]ARRAAQ[S5]RELVE; staple 5-12) | – | more modest effects on cell viability | little or no decrease in phosphorylation at any position | significant loss in ReAsH fluorescence | change of EGF-induced ReAsH fluorescence at a lower concentration ([3]; EGFR CCH-1, lower concentration than 1 μM): effectively reduced the ReAsH signal
2 | JM-WT: unmodified EGFR JM-A peptide VRKRTLRRLLQERELVE (SEQ ID NO: 1) | – | none of the cells are sensitive; also recorded: inability to decrease the viability | – | unchanged | –
3 | TE-64562: polypeptide containing the EGFR juxtamembrane segment fused to HIV Tat (Boran et al., 2012) (YGRKKRRQRRRVRKRTLRRLLQERELVE) [reference compound] | – | moderate decreases in viability | paralleled | – | effect on cell viability after 72 h ([1]; 72 h incubation): potency is mitigated significantly
4 | ^BE1ΔL^S: biotinylated analog of E1ΔL^S (VRKR[R8]ARRAAQ[S5]RELVE; staple 5-12; also: biotinylated, site of biotin not given here) | sequestered; also recorded: sequester wtEGFR | – | – | – | –

Continued, in another order:

Row | sequestration of full length wild type EGFR from cell lysates [4] | Substance | effect on cell viability [1] | pattern of phosphorylation changes over all probed positions [2] | change of EGF-induced ReAsH fluorescence [3] | also measured
5 | did not | ^BJM-WT: biotinylated analog of JM-WT (VRKRTLRRLLQERELVE; also: biotinylated) | – | – | – | –
6 | did not | ^BT1^S: biotinylated analog of T1^S (VRKRT[S5]RRL[S5]QERELVE; staple 6-10 (inferred); also: biotinylated) | – | – | – | –

Source: patent US9644002B2, “Allosteric modulators of EGFR and constitutively active mutants” (YALE UNIVERSITY, priority 2013, dated 2017)
